These results are taken from patent publication US20220204473A1, “COMPOUND AS IRAK INHIBITOR” (SHANGHAI MEIYUE BIOTECH DEVELOPMENT CO., LTD., priority 2018, published 2022).

Series [1] can be described thus: Stability in human liver microsomes. The format is in vitro ADME. The note with it: ∞ = no obvious metabolism found during assay. The procedure: (§1) 1. Preparation of buffer C:
(§2) Buffer A: 1.0 L of 0.1 M monopotassium phosphate buffer (containing 1.0 mM EDTA);
(§3) Buffer A: 1.0 L of 0.1 M dipotassium phosphate buffer (containing 1.0 mM EDTA);
(§4) Buffer C: Buffer A was added to 700 mL of buffer B until pH reached 7.4.
(§5) The test compound and the reference were separately dissolved in DMSO to give 10 mM stocks.
(§6) 500 μM solution: 10 μL of 10 mM stock solution was added to 190 μL of acetonitrile;
(§7) 1.5 μM dosing solution (in liver microsome solution):
(§8) 18.75 μL of 20 mg/mL liver microsomes were added to 479.75 μL of buffer C, followed by 1.5 μL of 500 μM solution. The mixture was gently shaken to mix well.
(§9) NADPH was weighed, to which an appropriate amount of buffer C was added to prepare a 6 mM NADPH solution.
(§10) 5. 30 μL of 1.5 μM dosing solution was added to wells of a 96-well plate set for different time points (0 min, 5 min, 15 min, 30 min, 45 min) in duplicate.
(§11) 6. Preparation of 0 min samples: 135 μL of acetonitrile (containing internal standard) was added to the 0 min wells, followed by 15 μL of 6 mM NADPH solution.
(§12) 7. The 96-well plate containing 1.5 μM dosing solution and NADPH solution were preheated for 5 min in a water bath at 37° C.
(§13) 8. 15 μL of pre-heated 6 mM NADPH solution was added to wells set for 5 min, 15 min, 30 min and 45 min to start the reaction.
(§14) 9. At time points of 5 min, 15 min, 30 min and 45 min, the reaction was terminated by adding 135 μL of acetonitrile (containing internal standard). The mixtures were vortexed for 10 min and centrifuged at 5594×g for 15 min (Thermo Multifuge×3R).
(§15) 10. 50 μL of the supernatant was transferred to wells of a 96-well plate containing 50 μL of water. The samples were mixed and finally subjected to LC-MS/MS analysis.
On the technique in general: Liver microsomes are a subcellular fraction often used to study metabolism.

Series [2] is described as follows: Stability in rat liver microsomes. The format is in vitro ADME. The note with it: pH 7.4, ∞ = no obvious metabolism found during assay, read-out: Stability test in liver microsomes t1/2, Rat. As for the experimental part:
as §1, §2, §3, §4, §5, §6, §7, §8, §9, §10, §11, §12, §13, §14, §15

Series [3] can be described thus: Stability in mouse liver microsomes. The format is in vitro ADME. The note with it: ∞ = no obvious metabolism found during assay. As for the experimental part:
as §1, §2, §3, §4, §5, §6, §7, §8, §9, §10, §11, §12, §13, §14, §15

In a further series the target is T1, human IRAK4 (Homo sapiens, UniProt Q9NWZ3).
T1 construct: purchased Cama (so in the source)
T1 sequence (Q9NWZ3 1-460): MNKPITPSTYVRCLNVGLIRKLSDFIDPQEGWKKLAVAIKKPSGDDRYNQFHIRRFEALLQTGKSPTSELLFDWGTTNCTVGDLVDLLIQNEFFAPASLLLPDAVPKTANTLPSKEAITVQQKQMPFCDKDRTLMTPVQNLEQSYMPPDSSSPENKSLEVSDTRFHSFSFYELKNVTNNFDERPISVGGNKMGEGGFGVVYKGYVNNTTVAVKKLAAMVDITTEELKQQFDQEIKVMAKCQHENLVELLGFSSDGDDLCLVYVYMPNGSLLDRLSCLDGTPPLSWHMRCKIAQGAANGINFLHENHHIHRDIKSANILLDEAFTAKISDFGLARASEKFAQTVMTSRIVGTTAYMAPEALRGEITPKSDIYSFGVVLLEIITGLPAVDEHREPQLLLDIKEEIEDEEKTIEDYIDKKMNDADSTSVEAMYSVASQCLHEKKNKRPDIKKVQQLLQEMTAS
In words: IRAK4 MSA (Mobility-Shift Assay) at Km ATP. The format is biochemical. The note with it: GST-IRAK4 1 nM, ATP 37 μM (Km); read-out: IC50 for inhibiting human IRAK4 kinase. The procedure:
A recombinant fusion protein of N-terminal GST (glutathione-S-transferase) and human IRAK4 was used as enzyme (GST-IRAK4, kinase IRAK4 (Cama)) at a final concentration of 1 nM; ATP (Sigma) was at a final concentration of 37 μM; the substrates used for the kinase reaction were a 5-FAM (5-carboxyfluorescein)-labeled polypeptide (5-FAM-[…]-COOH) and a substrate peptide FAM-P8 (GL Biochem) at final concentrations of […].
In this assay, 500 μM solutions of the compounds were prepared in 100% DMSO, and serially 4-fold diluted to the 10th concentration gradient with 100% DMSO, followed by a 10-fold dilution in the compound buffer (50 mM HEPES. pH 7.5, 0.00015% Brij-35) to give intermediate dilutions of the compounds at a final concentration of 10 μM-0.04 nM containing 10% DMSO respectively, 5 μL of the dilutions were transferred into a black 384-well plate respectively.
IRAK4 was diluted to 2.5 nM in the kinase buffer (50 mM HEPES, pH 7.5, 0.00015% Brij-35, 2 mM DTT). 10 μL of the IRAK4 dilution was transferred to the 384-well plate and co-incubated with the compound for 10-15 min.
The substrate and ATP were diluted to 12.5 μM and 92.5 μM with reaction buffer (50 mM HEPES, pH 7.5, 0.00015% Brij-35, 10 mM MgCl2), respectively. 10 μL of the dilutions were transferred to a 384-well plate and incubated at 28° C. for 1 h respectively. The reaction was terminated by adding 25 μL of 50 mM EDTA to the 384-well plate.
The inhibition rates of IRAK4 by the compounds were calculated by measuring the rate of phosphorylated substrate using a Caliper EZ Reader (PerkinElmer) and the IC50 values were calculated by XL-fit software.

Series [4] concerns TNF-α release in LPS-induced Balb/c female mice. In words: Inhibition of TNF-α release in LPS-induced Balb/c female mice. As to conditions: oral gavage 5 h before LPS induction, serum 1.5 h after stimulation. The format is in vivo, mouse. Set-up: concentration or dose not given beside the values. As for the experimental part: In the normal control groups, the animals received an intraperitoneal injection of normal saline (10 mL/kg) and in the model groups, the animals received LPS stimulation (Sigma CAT #L2630, i.p., 10 mL/kg, 0.2 mg/kg). During the assay, to the test compounds, DMSO, Solutol and 10 mM PBS were sequentially added to prepare a solution or suspension of required concentration for administration. For the vehicle, DMSO, Solutol and 10 mM PBS were mixed in a volume ratio of 5:15:80. In each of the groups, the animals were administered through oral gavage (10 mL/kg) 5 h before LPS (or saline) stimulation at predetermined doses, and euthanized with CO2 at 1.5 h after the stimulation for cardiac blood collection. The whole blood was not anticoagulated, incubated in wet ice for 1.5 h, and centrifuged at 2000×g at 4° C. for 10 min to separate the serum. The serum was frozen at −80° C. for TNF-α assay. Quantification of the TNF-α was done with TNF-α ELISA kit according to the manufacturer's instruction.

Series [5] has as its system IL-6 release in LPS-induced Balb/c female mice. In words: Inhibition of IL-6 release in LPS-induced Balb/c female mice. The class given is in vivo, mouse. Set-up: concentration or dose not given beside the values. As to conditions: administered 5 h before LPS induction, serum. The procedure: Objective of the test: To determine the inhibitory effect of the compounds by measuring the plasma IL-6 concentration in a Balb/c mouse model with LPS-induced inflammation.
2.1 Prepared mouse serum samples (sample batch no. 20181218)
4.1 Reagent kit was equilibrated at room temperature (25-28° C.) for 20 min. After each detection, the remaining reagents were stored at 4° C.
4.3 Preparing reference standard: 1 vial of reference standard substance was added with labeled volume of reference standard diluent. The mixtures were incubated for 15 min at room temperature. Then the mixtures were gently mixed to completely dissolve the substance to prepare a reference standard stock at a final concentration of 1000 μg/mL.
4.4 Dilution of samples: The sample in each group was diluted by […], i.e., a 2-fold dilution with sample assay buffer followed by another two-fold dilution with standard diluent.
4.5 The diluted samples or standards of different concentrations were added into corresponding wells at 100 μL/well respectively, and a background correcting well (or a blank well) was set by adding only TMB buffer and terminating solution. The wells were sealed with a transparent film and incubated at room temperature for 120 min.
4.6 The plate was subjected to 5 washes, each with 300 μL of washing buffer for 15-30 sec. The plate was dried on thick absorbent paper after the last wash.
4.7 Biotinylated antibody was added at 100 μL/well (Note: the biotinylated antibody was prepared in advance and could be used directly without further dilution). The wells were sealed with a transparent film and incubated at room temperature for 60 min.
4.8 The plate was subjected to 5 washes, each with 300 μL of washing buffer for 15-30 sec. The plate was dried on thick absorbent paper after the last wash.
4.9 Horseradish peroxidase-labeled streptavidin was added at 100 μL/well. The wells were sealed with a white film and incubated away from light at room temperature for 20 min.
4.10 The plate was subjected to 5 washes, each with 300 μL of washing buffer for 15-30 sec. The plate was dried on thick absorbent paper after the last wash.
4.11 The chromogenic reagent TMB was added 100 μL/well. The wells were sealed with a white film and incubated away from light at room temperature for 20 min.
4.12 The terminating solution was added at 50 μL/well and A450 value was measured right after mixing.

Broadly, the IC50 is the concentration at which inhibition is half-maximal. Take `CC(C)(O)[C@H]1C[C@H](n2cc3cc(NC(=O)c4cccc(C(F)(F)F)n4)c(-n4cccn4)cc3n2)C1` [MY-004-144]: the “Stability test in liver microsomes t1/2, Human” value in series [1] is recorded as “∞”. Moreover, the half-life at 1 μM in series [2] turned out to be 11.4 h. The “Stability test in liver microsomes t1/2, Mouse” value in series [3] is listed as “∞”. For the same compound, the IC50 at human IRAK4 amounted to 4.4 nM.

Take `COc1cc2nn([C@H]3C[C@H](C(C)(C)O)C3)cc2cc1NC(=O)c1cnn2cccnc12` [MY-004-075]: the “Inhibition rate of TNF-α” value in series [4] is on record as 90.15%. In addition, the “Inhibition rate of IL-6” value in series [5] came out at 96.88%. For the same compound, at human IRAK4, the IC50 came out at 3.6 nM.
